Data on 13 molecules can be found in ChEMBL document CHEMBL5634083, “Targeting polyketide synthase 13 for the treatment of tuberculosis” (Eur J Med Chem, 2023).

≈ marks a conversion by molar mass, not a printed value. Some results are limits rather than exact numbers.

Data set [1] deals with Mycobacterium tuberculosis. As to the kind of experiment: Antibacterial activity against Mycobacterium tuberculosis H37Rv assessed as inhibition of cell growth. Format: functional.
The test system of data set [2] is Mycobacterium tuberculosis. Nature of the data set: Antimycobacterial activity against Mycobacterium tuberculosis H37Rv assessed as reduction in microbial growth after 7 days by alamar blue assay. Format: functional. Particulars: 168 h, time 7 day. Background: Alamar Blue is a resazurin reagent that responds to reducing activity.
In data set [3] the test system is Mycobacterium tuberculosis. Nature of the data set: Antimycobacterial activity against Mycobacterium tuberculosis H37Rv ATCC 27294 assessed as reduction in bacterial growth after 21 days by serial dilution method. Particulars: H37Rv ATCC 27294, 504 h, time 21 day. Format: functional.
Data set [4] concerns Mycobacterium tuberculosis. Nature of the data set: Antimycobacterial activity against Mycobacterium tuberculosis H37Rv assessed as reduction in bacterial growth incubated for 7 days by resazurin based assay. Format: functional. Particulars: 168 h, time 7 day.
Data set [5] has as its system Mycobacterium tuberculosis. Nature of the data set: Antimycobacterial activity against Mycobacterium tuberculosis H37Rv assessed as reduction in bacterial growth. Format: functional.
Data set [6] deals with Mycobacterium tuberculosis. Nature of the data set: Antimycobacterial activity against Mycobacterium tuberculosis H37Rv assessed as reduction in bacterial cell growth by resazurin reduction method. Format: functional.
Data set [7] concerns Mycobacterium tuberculosis. As to the kind of experiment: Antimycobacterial activity against Mycobacterium tuberculosis H37Rv assessed as reduction in bacterial growth measured after 16 to 24 hrs by microplate alamar blue assay. In kind it is functional. Particulars: time 16-24 hrs.
Data set [8] deals with Polyketide synthase Pks13 (Mycobacterium tuberculosis (strain ATCC 25618 / H37Rv), UniProt I6X8D2). Nature of the data set: Inhibition of Mycobacterium tuberculosis recombinant Pks13 expressed in Escherichia coli BL21 (DE3) cells using 4-methylumbelliferyl heptanoate as substrate incubated for 3 hrs by […] based analysis. (Polarisation of emitted light reports the rotation of a fluorescent probe.)

Data set [9] deals with Mycobacterium tuberculosis. As to the kind of experiment: Antimycobacterial activity against Mycobacterium tuberculosis H37Rv assessed as microbial growth inhibition measured after 3 days by alamar blue assay. In kind it is functional. Particulars: 72 h, time 3 day.
Data set [10] has as its system Mycobacterium tuberculosis. As to the kind of experiment: Antitubercular activity against Mycobacterium tuberculosis H37Rv assessed as reduction in microbial growth measured after 3 weeks by resazurin microplate reader assay. In kind it is functional. Particulars: 504 h.
Data set [11] can be described thus: Metabolic stability in mouse liver microsomes assessed as intrinsic clearance. Format: ADME, Microsome. A general note: Liver microsomes are a subcellular fraction often used to study metabolism.
Data set [12] deals with HepG2. As to the kind of experiment: Cytotoxicity against human HepG2 cells assessed as reduction in cell growth. In kind it is functional, cell-based.
Data set [13] can be described thus: Cytotoxicity against African green monkey Vero cells assessed as reduction in cell viability. Format: toxicity, cell-based. Particulars: African green monkey (Chlorocebus sabaeus).
Data set [14] in a line: Microsomal stability in human liver microsomes assessed as half life. Format: ADME, Microsome.

Polyketide synthase Pks13, sequence (I6X8D2 whole entry): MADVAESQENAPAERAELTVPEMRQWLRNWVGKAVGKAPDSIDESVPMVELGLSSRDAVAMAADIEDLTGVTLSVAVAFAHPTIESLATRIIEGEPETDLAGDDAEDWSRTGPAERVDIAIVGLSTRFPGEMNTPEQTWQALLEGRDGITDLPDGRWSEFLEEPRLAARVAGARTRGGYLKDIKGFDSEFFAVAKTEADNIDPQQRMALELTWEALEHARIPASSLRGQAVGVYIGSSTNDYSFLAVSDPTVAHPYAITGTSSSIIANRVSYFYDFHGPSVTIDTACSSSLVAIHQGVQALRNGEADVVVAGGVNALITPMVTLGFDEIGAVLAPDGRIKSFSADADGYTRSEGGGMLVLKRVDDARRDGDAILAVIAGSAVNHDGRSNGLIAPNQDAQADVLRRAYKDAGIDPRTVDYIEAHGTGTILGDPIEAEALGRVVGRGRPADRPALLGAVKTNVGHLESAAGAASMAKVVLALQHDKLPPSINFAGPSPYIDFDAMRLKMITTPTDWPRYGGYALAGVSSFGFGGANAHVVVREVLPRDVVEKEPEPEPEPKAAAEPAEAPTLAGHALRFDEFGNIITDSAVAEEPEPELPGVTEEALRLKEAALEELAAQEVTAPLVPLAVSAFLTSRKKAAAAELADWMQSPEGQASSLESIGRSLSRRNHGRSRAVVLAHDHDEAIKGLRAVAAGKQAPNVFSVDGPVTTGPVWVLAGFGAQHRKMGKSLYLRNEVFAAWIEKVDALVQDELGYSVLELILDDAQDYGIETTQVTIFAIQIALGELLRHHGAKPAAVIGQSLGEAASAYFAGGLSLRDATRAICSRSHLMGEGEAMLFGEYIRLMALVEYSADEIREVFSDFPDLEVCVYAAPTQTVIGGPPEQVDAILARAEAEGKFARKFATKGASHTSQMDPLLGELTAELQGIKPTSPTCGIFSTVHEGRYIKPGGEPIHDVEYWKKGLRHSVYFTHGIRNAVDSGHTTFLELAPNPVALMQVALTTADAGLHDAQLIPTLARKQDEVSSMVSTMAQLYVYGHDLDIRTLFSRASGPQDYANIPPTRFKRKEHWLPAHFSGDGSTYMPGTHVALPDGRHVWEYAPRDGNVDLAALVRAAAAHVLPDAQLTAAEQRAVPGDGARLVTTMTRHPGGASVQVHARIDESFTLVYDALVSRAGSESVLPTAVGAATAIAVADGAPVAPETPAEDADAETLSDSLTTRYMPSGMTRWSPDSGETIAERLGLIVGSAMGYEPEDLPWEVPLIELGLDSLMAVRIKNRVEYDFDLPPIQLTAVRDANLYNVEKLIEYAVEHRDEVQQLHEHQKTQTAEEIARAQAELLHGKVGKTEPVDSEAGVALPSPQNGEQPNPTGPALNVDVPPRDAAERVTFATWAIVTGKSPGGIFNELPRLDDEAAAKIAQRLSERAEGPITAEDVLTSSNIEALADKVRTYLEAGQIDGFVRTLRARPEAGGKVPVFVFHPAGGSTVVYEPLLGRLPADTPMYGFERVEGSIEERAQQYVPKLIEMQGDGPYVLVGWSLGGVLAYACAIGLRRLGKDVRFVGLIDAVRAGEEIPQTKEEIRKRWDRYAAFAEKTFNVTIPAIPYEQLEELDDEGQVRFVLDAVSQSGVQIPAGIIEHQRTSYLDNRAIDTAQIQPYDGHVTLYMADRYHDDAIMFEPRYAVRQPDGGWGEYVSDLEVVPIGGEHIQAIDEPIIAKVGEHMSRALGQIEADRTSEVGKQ

As a reminder, the MIC is the least concentration at which growth counts as inhibited. `CCCCCCCCCCC[C@@H](C[C@@H]1OC(=O)[C@H]1CCCCCC)OC(=O)[C@H](CC(C)C)NC=O` [ORLISTAT]: the minimum inhibitory concentration (MIC) in data set [1] worked out at 15 µM (≈ 7.44 µg/mL).

For `CCOC(=O)c1c(NC(=O)c2c(F)c(F)c(F)c(F)c2F)sc2c1CCN(CC)C2`, in data set [2], the MIC turned out to be 0.23 µM. For `Cc1ccc(-c2cc(C(F)(F)F)nn2-c2ccc(S(N)(=O)=O)cc2)cc1` [CELECOXIB], the minimum inhibitory concentration (MIC) in [3] is 64 µg/mL (≈ 168 µM). As to `CCN(CC)CCCC(C)Nc1c2ccc(Cl)cc2nc2ccc(OC)cc12` (stereo not drawn) [QUINACRINE], in data set [3], the MIC came out at 64 µg/mL (≈ 160 µM). As for `CCOC(=O)c1c(NC(=O)c2c(F)c(F)c(F)c(F)c2F)sc(C(N)=O)c1C`, the MIC in data set [4] and in [5] was 0.5 µM (≈ 0.211 µg/mL) each time.

Take `CNC(=O)c1c(-c2ccccc2)oc2ccc(O)c(CN3CCCCC3)c12`: in data set [6], the MIC was 0.29 µM (≈ 0.106 µg/mL). By IC50 is commonly meant the point on the concentration scale where inhibition reaches its midpoint. For `O=c1cc(-c2ccccc2O)oc2ccc(O)c(CN3CCC3)c12`, in data set [7], the minimal inhibitory concentration (MIC) worked out at 0.45 µg/mL (≈ 1.39 µM). In data set [8], the IC50 was 0.0143 µM.

As for `C=CCCCCCCC[C@H]1C(=O)O[C@@H]1CCCCCNC(=O)c1ccc(N(C)C)cc1`, the MIC in data set [9] is 1.6 µM (≈ 0.686 µg/mL). Regarding `O=C(c1ccccc1)c1cc(Cl)ccc1OCc1nc(-c2ccc(C(F)(F)F)cc2)no1`, the MIC in data set [10] is 8 µg/mL.

Consider `CNC(=O)c1c(-c2ccc(O)cc2)oc2ccc(O)c(CN3CCCCC3)c12`, for which the CLH in data set [11] is less than 0.5 mL/min/g. As for `COC(=O)c1c(NC(=O)c2c(F)c(F)c(F)c(F)c2F)sc2c1CCCCC2`, the figures for the minimal inhibitory concentration (MIC) in [4] and in data set [5] were 1 µM (≈ 0.419 µg/mL) and 0.5 µM (≈ 0.21 µg/mL), respectively. Besides, the 50% inhibitory concentration (IC50) in data set [12] is 7.3 µM; in [13] it was 17.5 µM. Broadly, the half-life is the time needed for the level to fall by half in the phase considered. For the molecule `CCOC(=O)c1c(-c2ccccc2)oc2ccc(O)c(CN3CCC(C)CC3)c12`, the half-life in [14] is 18.8 min. For `COc1ccccc1OCCNCC(O)COc1cccc2[nH]c3ccccc3c12` (stereo not drawn) [CARVEDILOL], in data set [3], the MIC was found to be 32 µg/mL (≈ 78.7 µM).
